Key:
middle cerebral arteries = details: DS rats; Payne and Smeda 2002; cited from earlier work
blood-brain barrier = assay: Blood-brain barrier disruption by Evans Blue dye extravasation; assay type: in vivo, rat; details: hypertensive DS rats, at 13 weeks, n=6, p<0.01
Description: (§1) As detailed in Example 1, Dahl salt-sensitive (DS) rats, which are a model for hypertension in humans, were used to evaluate the efficacy of δPKC inhibitor treatment. The animals were initially maintained on a low-salt (0.3% NaCl) diet then switched to a high-salt (8% NaCl) to induce hypertension. The rats were subcutaneously treated with either a saline solution, a control peptide (TAT, SEQ ID NO:85), or a δPKC peptide inhibitor. Blood pressure was measured bi-weekly and blood-brain barrier (BBB) disruption was assessed at the end of the treatment period. Proteomic analysis of brain samples was carried out to identify differences in the brains of control TAT peptide and δV1-1-treated animals.
(§2) The rats were subcutaneously infused (i.e., treated) with a saline solution, a control TAT peptide (YGRKKRRQRRR, SEQ ID NO:85), or the peptide inhibitor δV1-1 (SFNSYELGSL, SEQ ID NO: 1) attached via an N-terminal disulfide bond to TAT peptide (YGRKKRRQRRR-CC-SFNSYELGSL, SEQ ID NO:89), at a rate of 5.0 μL/hour, using an osmotic minipump. Treatment began at 11 weeks of age and survival rate and neurological deficits were recorded through week 15. Blood pressure was measured bi-weekly and blood-brain barrier disruption was assessed at 13 weeks by measuring Evans Blue dye extravasation. […] Blood brain barrier-related proteins were evaluated by immunoblot analysis.

transferrin and actin = assay: Proteomic analysis of brain samples; assay type: in vivo, rat; details: brain samples taken at 13 weeks of age, continuous administration
Description: as §1, §2

[1] = tested on: zonula occludens 1 (ZO-1), and occludin; assay: Immunoblot analysis of blood brain barrier-related proteins; assay type: in vivo, rat; details: hypertensive DS rats
Description: (§3) The rats were subcutaneously infused (i.e., treated) with a saline solution, a control TAT peptide (YGRKKRRQRRR, SEQ ID NO:85), or the peptide inhibitor δV1-1 (SFNSYELGSL, SEQ ID NO: 1) attached via an N-terminal disulfide bond to TAT peptide (YGRKKRRQRRR-CC-SFNSYELGSL, SEQ ID NO:89), at a rate of 5.0 μL/hour, using an osmotic minipump. Treatment began at 11 weeks of age and survival rate and neurological deficits were recorded through week 15. Blood pressure was measured bi-weekly and blood-brain barrier disruption was assessed at 13 weeks by measuring Evans Blue dye extravasation. Proteomic analysis of brain samples was carried out to identify differences in the brains of control TAT peptide and δV1-1-treated animals. Blood brain barrier-related proteins were evaluated by immunoblot analysis.

[2] = tested on: Dahl salt-sensitive (DS) rats; assay: Hypertension-induced stroke in Dahl salt-sensitive rats on high-salt diet (blood pressure, stroke incidence); assay type: in vivo, rat; details: hypertensive DS rats; for blood pressure: subcutaneous infusion by osmotic minipump, versus control TAT peptide
Description: as §1
Male Dahl salt-sensitive (DS) rats were maintained on a low-salt (0.3% NaCl) diet until 6 weeks of age. The animals were then switched to a high-salt (8% NaCl) diet until 15 weeks of age. The animals were monitored daily for symptoms of systemic hypertension.
as §3

Molecule | middle cerebral artery constriction in response to elevated blood pressure (middle cerebral arteries) | Evans Blue extravasation into the brain parenchyma (blood-brain barrier) | increased levels of transferrin and actin in brain samples (transferrin and actin) | hypertension-induced redistribution of tight junction-related proteins ZO-1 and occludin [1] | incidence of stroke (and stroke-associated symptoms) ([2]; relative to the TAT control group, n=24, p<0.01) | blood pressure ([2]; listed as δPKC inhibitor) | blood pressure ([2]; listed as δV1-1 peptide)
bisindolylmaleimide | inhibited constriction |  |  |  |  |  | 
YGRKKRRQRRR-CC-SFNSYELGSL [δV1-1] |  | reduced | attenuated | blocked | significantly decreased | similar | identical
COc1ccc2c(c[n+](C)c3c4cc5c(cc4ccc23)OCO5)c1OC [chelerythrine] | inhibited constriction |  |  |  |  |  | 

Source: patent US20090062208A1, “Methods for maintaining blood-brain barrier integrity in hypertensive subjects using a delta-PKC inhibitor” (priority 2007, published 2009)
